The values that follow come from patent publication US20240150377A1, “MODULATORS OF CYSTIC FIBROSIS TRANSMEMBRANE CONDUCTANCE REGULATOR” (VERTEX PHARMACEUTICALS INCORPORATED, priority 2020, published 2024).

pEC50: −log10 of the molar value. Like-named read-outs stand apart in the source and are kept apart here.

The experiment addresses T1, CFTR (Homo sapiens, UniProt P13569, DEL508-508).
T1 construct: endogenous in cells; host or cells: primary human bronchial epithelial cells from CF subjects (F508del/MF-HBE), differentiated at air-liquid interface
The experiment can be described thus: HBE assay: Ussing chamber assay of CFTR-mediated short-circuit currents. In kind it is cell-based. The note with it: for pEC50: read-out: HBE EC50; for activation at 10 µM: read-out: HBE Activity at 10 μM (%). Put shortly: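 CFTR-mediated Isc (μA/cm²) equals the peak response to apical 20 μM forskolin minus the residual after a 20 μM each BPO/GlyH-101/CFTR inhibitor 172 cocktail, recorded in Ussing chambers at Vhold 0 mV, 37 °C, pH 7.4, with 30 μM apical amiloride. Cells were F508del/MF HBE cultures preincubated 18-24 h with corrector (concentration range or 10 μM) plus 1 μM ivacaftor in 20% human serum.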

[1] abbreviates: HBE assay, read-out: HBE Max activity (%).
[2] abbreviates: Table 12, read-out: HBE Max Activity (%).
The mark [3] stands for this setting: Table 11, read-out: HBE Max Activity (%).
Setting [4] is: Table 13, read-out: HBE Max Activity (%).

T1 sequence (P13569 with tags, fused parts or gaps DEL508-508): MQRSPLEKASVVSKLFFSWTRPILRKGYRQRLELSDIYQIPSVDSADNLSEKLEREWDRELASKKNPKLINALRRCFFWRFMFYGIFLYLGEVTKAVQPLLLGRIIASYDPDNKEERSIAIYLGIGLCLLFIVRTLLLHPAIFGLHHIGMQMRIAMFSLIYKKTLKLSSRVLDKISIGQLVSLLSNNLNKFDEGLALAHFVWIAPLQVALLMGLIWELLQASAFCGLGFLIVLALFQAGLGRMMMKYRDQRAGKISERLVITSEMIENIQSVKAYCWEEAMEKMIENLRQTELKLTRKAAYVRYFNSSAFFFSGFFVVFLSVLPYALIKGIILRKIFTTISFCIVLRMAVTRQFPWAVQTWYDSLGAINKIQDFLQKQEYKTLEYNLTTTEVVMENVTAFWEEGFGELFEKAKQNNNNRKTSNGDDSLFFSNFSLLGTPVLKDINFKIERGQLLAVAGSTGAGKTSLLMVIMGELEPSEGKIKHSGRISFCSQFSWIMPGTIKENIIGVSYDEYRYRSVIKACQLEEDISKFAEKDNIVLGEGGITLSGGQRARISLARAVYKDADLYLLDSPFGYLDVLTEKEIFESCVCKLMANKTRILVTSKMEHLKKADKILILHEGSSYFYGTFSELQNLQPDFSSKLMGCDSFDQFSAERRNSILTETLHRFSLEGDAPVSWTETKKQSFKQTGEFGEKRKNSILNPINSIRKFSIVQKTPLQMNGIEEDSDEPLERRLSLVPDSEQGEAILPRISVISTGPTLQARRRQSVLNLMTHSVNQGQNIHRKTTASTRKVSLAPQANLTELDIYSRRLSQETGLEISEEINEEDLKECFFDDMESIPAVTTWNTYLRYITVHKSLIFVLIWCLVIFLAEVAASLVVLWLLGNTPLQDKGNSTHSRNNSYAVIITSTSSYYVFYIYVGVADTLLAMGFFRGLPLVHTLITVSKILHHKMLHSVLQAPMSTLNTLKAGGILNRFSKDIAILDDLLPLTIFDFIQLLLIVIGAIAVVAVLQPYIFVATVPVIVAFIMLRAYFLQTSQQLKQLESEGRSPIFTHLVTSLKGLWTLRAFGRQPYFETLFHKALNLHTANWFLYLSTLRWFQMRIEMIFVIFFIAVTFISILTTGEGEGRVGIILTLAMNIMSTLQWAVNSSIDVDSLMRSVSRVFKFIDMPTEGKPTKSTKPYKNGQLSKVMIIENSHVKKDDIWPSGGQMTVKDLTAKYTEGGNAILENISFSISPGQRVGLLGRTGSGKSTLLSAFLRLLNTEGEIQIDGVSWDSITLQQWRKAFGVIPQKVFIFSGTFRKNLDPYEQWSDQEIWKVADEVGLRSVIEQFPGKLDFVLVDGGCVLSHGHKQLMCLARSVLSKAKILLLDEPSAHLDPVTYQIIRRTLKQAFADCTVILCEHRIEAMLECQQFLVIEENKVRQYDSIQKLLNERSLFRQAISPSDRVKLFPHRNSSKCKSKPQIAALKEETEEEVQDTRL

The term pEC50 denotes the negative decadic logarithm of the EC50, by convention in mol/L. As to `CC[C@@H](C)Oc1cnc(CN2C(=O)c3cccc(c3)S(=O)(=O)Nc3nc(cc(-c4c(C)cccc4C)n3)OC[C@H]2CC(C)C)nc1` [Compound 1391], the pEC50 (HBE assay) was over 6.00. Further, the Emax under setting [1] was over 60%. As for `Cc1cccc(C)c1-c1cc2nc(n1)NS(=O)(=O)c1cccc(c1)C(=O)N(Cc1cn3ccccc3n1)[C@H](CC(C)(C)C)CO2` [Compound 699], the pEC50 (Table 12) was over 6.00. The Emax under setting [2] was over 60%. For the compound `Cc1cccc(C)c1-c1cc2nc(n1)NS(=O)(=O)c1cccc(c1)C(=O)N(Cc1cccc(N3CC(C)(C)C3)n1)[C@H](CC(C)(C)C)CO2` [Compound 632], the pEC50 (Table 11) is over 6.00. Also, the Emax under setting [3] is over 60%.

As for `Cc1cccc(C)c1-c1cc2nc(n1)NS(=O)(=O)c1cccc(c1)C(=O)N(CC(=O)NCc1ccccc1)[C@H](CC(C)(C)C)CO2` [Compound 219], the activation at 10 µM (Table 13, at 10 μM) was over 600%.

`Cc1cccc(C)c1-c1cc2nc(n1)NS(=O)(=O)c1cccc(c1)C(=O)N(Cc1ncc(OC3CCCC3)cn1)[C@H](CC(C)C)CO2` [Compound 1408]: the pEC50 (HBE assay) is 5.52 to 6.00. Under setting [1], the Emax was over 60%. With `COC[C@H]1CCCCN1c1cncc(CN2C(=O)c3cccc(c3)S(=O)(=O)Nc3nc(cc(-c4c(C)cccc4C)n3)OC[C@H]2CC(C)(C)C)n1` [Compound 1538], the activation at 10 µM was over 60%. In the case of `Cc1cccc(C)c1-c1cc2nc(n1)NS(=O)(=O)c1cccc(c1)C(=O)N(CC(=O)NC1CCCCC1(C)C)[C@H](CC(C)(C)C)CO2` (some centres unmarked) [Compound 178], where the note is “Table 13, at 10 μM”, the activation at 10 µM is over 600%. For the compound `Cc1cccc(C)c1-c1cc2nc(n1)NS(=O)(=O)c1cccc(c1)C(=O)N(Cc1ncc(N3C[C@@H](F)[C@@H](F)C3)cn1)[C@H](CC(C)(C)C)CO2` [Compound 1481], the negative-log EC50 (pEC50) (HBE assay) was over 6.00. Besides, the Emax under setting [1] was over 60%. On to `Cc1cccc(C)c1-c1cc2nc(n1)NS(=O)(=O)c1cccc(c1)C(=O)N(Cc1ncc(N3CCC(C)(C)CC3)cn1)[C@H](CC(C)C)CO2` [Compound 605], for which, for the setting “Table 11”, the negative logarithm of the EC50 (pEC50) is 4.52 to 5.52. For the same compound, the Emax under setting [3] was over 60%. In the case of `Cc1cccc(C)c1-c1cc2nc(n1)NS(=O)(=O)c1cccc(c1)C(=O)N(CC1CC3(C1)CC(NC(=O)OC(C)(C)C)C3)[C@H](CC(C)C)CO2` (some centres unmarked) [Compound 1004], the activation at 10 µM (Table 12, at 10 μM) was over 600%. As usually defined, the EC50 is the concentration that produces a half-maximal response. As to `Cc1cccc(C)c1-c1cc2nc(n1)NS(=O)(=O)c1cccc(c1)C(=O)N(CC1CC(N3C[C@@H](C)O[C@@H](C)C3)C1)[C@H](CC(C)(C)C)CO2` (single isomer, unassigned) [Compound 64], under “HBE EC50 (μM), Table 10”, the EC50 is under 1 µM. The Emax (read-out: HBE Max activity (%)) was over 60%. Regarding `CCC(C)C(CO)N(C)c1cncc(CN2C(=O)c3cccc(c3)S(=O)(=O)Nc3nc(cc(-c4c(C)cccc4C)n3)OC[C@H]2CC(C)(C)C)n1` (some centres unmarked) [Compound 260], under “Table 12”, the pEC50 is over 6.00. The Emax under setting [2] is over 60%. Turning to `COCCN(C)c1cnc(CN2C(=O)c3cccc(c3)S(=O)(=O)Nc3nc(cc(-c4c(C)cccc4C)n3)OC[C@H]2CC(C)(C)C)c(C)c1` [Compound 1381], the pEC50 (HBE assay) is over 6.00. The Emax under setting [1] was over 60%.

In the case of `COc1cccc(C)c1-c1cc2nc(n1)NS(=O)(=O)c1cccc(c1)C(=O)N(Cc1ncc(CC(C)C)cn1)[C@H](CC(C)(C)C)CO2` [Compound 576], the activation at 10 µM (Table 12, at 10 μM) was over 600%.

As for `Cc1cccc(C)c1-c1cc2nc(n1)NS(=O)(=O)c1cccc(c1)C(=O)N(Cc1ncc(C3CCCC3)cn1)[C@H](CC(C)(C)C)CO2` [Compound 638], the pEC50 (Table 11) was 5.52 to 6.00. In addition, under setting [3], the Emax was over 60%.

`Cc1cccc(C)c1-c1cc2nc(n1)NS(=O)(=O)c1cccc(c1)C(=O)N(Cc1ccc(N3CC4(CCCO4)C3)cn1)[C@H](CC(C)(C)C)CO2` [Compound 1058]: where the note is “Table 13”, the pEC50 was over 6.00. For the same compound, the Emax under setting [4] was over 60%. Consider `Cc1cccc(C)c1-c1cc2nc(n1)NS(=O)(=O)c1cccc(c1)C(=O)N(CC(=O)N1CCCC1(C)C)[C@H](CC(C)(C)C)CO2` [Compound 213], for which the activation at 10 µM (Table 13, at 10 μM) was over 600%. For `Cc1cccc(C)c1-c1cc2nc(n1)NS(=O)(=O)c1cccc(c1)C(=O)N(Cc1ncc(N3CCC(F)(F)C3)cn1)[C@H](CC1CC1)CO2` [Compound 1469], the negative logarithm of the EC50 (pEC50) (HBE assay) was over 6.00. Also, the Emax under setting [1] is over 60%. For `Cc1cccc(C)c1-c1cc2nc(n1)NS(=O)(=O)c1cccc(c1)C(=O)N(Cc1ncc(OC3CCOCC3)cn1)[C@H](CC(C)(C)C)CO2` [Compound 556], under “Table 12”, the negative logarithm of the EC50 (pEC50) was over 6.00. The Emax under setting [2] was over 60%. As for `CC[C@H](C)Oc1cnc(CN2C(=O)c3cccc(c3)S(=O)(=O)Nc3nc(cc(-c4c(C)cccc4C)n3)OC[C@H]2CC2CC2)nc1` [Compound 1453], the negative-log EC50 (pEC50) (HBE assay) is 5.52 to 6.00. Further, under setting [1], the Emax was over 60%. In the case of `Cc1cccc(C)c1-c1cc2nc(n1)NS(=O)(=O)c1cccc(c1)C(=O)N(Cc1cc3ccoc3cn1)[C@H](CC(C)(C)C)CO2` [Compound 998], the activation at 10 µM (Table 13, at 10 μM) was over 600%. For `CO[C@H]1C[C@@H](Oc2cnc(CN3C(=O)c4cccc(c4)S(=O)(=O)Nc4nc(cc(-c5c(C)cccc5C)n4)OC[C@H]3CC(C)(C)C)nc2)C1` [Compound 1369], the pEC50 (HBE assay) is over 6.00. Further, the Emax under setting [1] is over 60%. Turning to `Cc1cccc(C)c1-c1cc2nc(n1)NS(=O)(=O)c1cccc(c1)C(=O)N(Cc1ncccc1N1CCCCC1)[C@H](CC(C)(C)C)CO2` [Compound 377], where the note is “Table 10”, the negative-log EC50 (pEC50) is over 6.00. Also, the Emax (Table 10, read-out: HBE Max activity (%)) is over 60%. For the compound `Cc1cccc(C)c1-c1cc2nc(n1)NS(=O)(=O)c1cccc(c1)C(=O)N(CC(=O)N1CCc3ccccc3C1C)[C@H](CC(C)(C)C)CO2` (some centres unmarked) [Compound 211], the activation at 10 µM (Table 13, at 10 μM) is over 600%.

Regarding `Cc1cccc(C)c1-c1cc2nc(n1)NS(=O)(=O)c1cccc(c1)C(=O)N(Cc1ncc(N3CC(F)C3)cn1)[C@H](CC(C)(C)C)CO2` [Compound 1498], the activation at 10 µM (HBE assay, 10 μM) was over 60%. Take `Cc1cccc(C)c1-c1cc2nc(n1)NS(=O)(=O)c1cccc(c1)C(=O)N(Cc1nccc(N(C)C34CC(C3)C4)n1)[C@H](CC(C)(C)C)CO2` [Compound 447]: the activation at 10 µM (Table 12, at 10 μM) was over 600%. Turning to `Cc1cccc(C)c1-c1cc2nc(n1)NS(=O)(=O)c1cccc(c1)C(=O)N(Cc1cncc(OC(C)C)n1)[C@H](CC(C)(C)C)CO2` [Compound 894], the pEC50 (Table 11) is over 6.00. Further, the Emax under setting [3] is over 60%. On to `Cc1cccc(C)c1-c1cc2nc(n1)NS(=O)(=O)c1cccc(c1)C(=O)N(Cc1ccc(OCC(C)(C)O)cn1)[C@H](CC(C)(C)C)CO2` [Compound 51, (11R)-6-(2,6-Dimethylphenyl)-11-(2,2-dimethylpropyl)-12-[[5-(2-hydroxy-2-methyl-propoxy)-2-pyridyl]methyl]-2,2-dioxo-9-oxa-2λ^6-thia-3,5,12,19-tetrazatricyclo[12.3.1.14,8]nonadeca-1(18),4(19),5,7,14,16-hexaen-13-one], for which the activation at 10 µM (Table 11, at 10 μM) was over 60%. Besides, the pEC50 (Table 11) was over 6.00. The Emax under setting [3] was over 60%. With `C=C(C)c1cccc(CN2C(=O)c3cccc(c3)S(=O)(=O)Nc3nc(cc(-c4c(C)cccc4C)n3)OC[C@H]2CC(C)(C)C)n1` [Compound 735], under “Table 11, at 10 μM”, the activation at 10 µM was over 60%. In addition, the pEC50 (Table 11) is over 6.00. Moreover, the Emax under setting [3] was over 60%. In the case of `Cc1ccnc(CNC(=O)CN2C(=O)c3cccc(c3)S(=O)(=O)Nc3nc(cc(-c4c(C)cccc4C)n3)OC[C@H]2CC(C)(C)C)c1` [Compound 218], the activation at 10 µM (Table 12, at 10 μM) was over 600%. As for `Cc1cccc(C)c1-c1cc2nc(n1)NS(=O)(=O)c1cccc(c1)C(=O)N(Cc1nccc(N3CCC(C)(C)C3)n1)[C@H](CC(C)(C)C)CO2` [Compound 648], the pEC50 (Table 11) is over 6.00. Moreover, under setting [3], the Emax was over 60%.

For `Cc1cccc(C)c1-c1cc2nc(n1)NS(=O)(=O)c1cccc(c1)C(=O)N(Cc1cccc(C3CCCCO3)n1)[C@H](CC(C)(C)C)CO2` (some centres unmarked) [Compound 603], for the setting “Table 11”, the pEC50 is over 6.00. Further, the Emax under setting [3] was over 60%.

With `Cc1cccc(C)c1-c1cc2nc(n1)NS(=O)(=O)c1cccc(c1)C(=O)N(Cc1ncc(O[C@@H](C)C(C)C)cn1)[C@H](CC1CC1)CO2` [Compound 1455], under “HBE assay”, the pEC50 is over 6.00. Under setting [1], the Emax was over 60%. For the compound `COC[C@H]1CCCN1c1cncc(CN2C(=O)c3cccc(c3)S(=O)(=O)Nc3nc(cc(-c4c(C)cccc4C)n3)OC[C@H]2CC(C)(C)C)n1` [Compound 274], the pEC50 (Table 12) is over 6.00. For the same compound, under setting [2], the Emax was over 60%.

Consider `Cc1cccc(C)c1-c1cc2nc(n1)NS(=O)(=O)c1cccc(c1)C(=O)N(Cc1ncc(C(C)C)n1C)[C@H](CC(C)(C)C)CO2` [Compound 266], for which the activation at 10 µM (Table 12, at 10 μM) is over 600%. With `Cc1cccc(C)c1-c1cc2nc(n1)NS(=O)(=O)c1cccc(c1)C(=O)N(Cc1ccc(C3CC4(CCC4)C3)cn1)[C@H](CC(C)(C)C)CO2` [Compound 163], the pEC50 (Table 13) was 5.52 to 6.00. Besides, the Emax under setting [4] was over 60%. On to `Cc1cccc(C)c1-c1cc2nc(n1)NS(=O)(=O)c1cccc(c1)C(=O)N(CC(=O)NCCN1CCOCC1)[C@H](CC(C)(C)C)CO2` [Compound 166], for which the activation at 10 µM (Table 12, at 10 μM) is over 600%. As to `CO[C@H](C)[C@@H]1CCCN1c1cncc(CN2C(=O)c3cccc(c3)S(=O)(=O)Nc3nc(cc(-c4c(C)cccc4C)n3)OC[C@H]2CC(C)(C)C)n1` [Compound 1451], under “HBE assay”, the negative logarithm of the EC50 (pEC50) was over 6.00. The Emax under setting [1] was over 60%.
